Results taken from patent publication US20250085283A1, “METHOD FOR QUANTIFYING NICOTINAMIDE ADENINE DINUCLEOTIDE (NAD+) OR NICOTINAMIDE MONONUCLEOTIDE (NMN), AND KIT AND FILTER PAPER FOR PERFORMING THE METHOD” (Teijin Limited, priority 2022, published 2025).

What was measured:
Type in all cases: physicochemical, human
[1] = Chilled storage stability of NAD+ and NMN in blood spotted on filter paper (DBS, LC-MS/MS); conditions: for Storage stability (mean): vs storage 0 days
Method: A filter paper, to which blood derived from a test subject is added (i.e., corresponding to a filter paper in Step 1 of the present invention), was searched for the optimal one for quantifying NAD+ and NMN when the filter paper with added blood derived from the test subject is stored in the refrigerator for a certain period of time.
From 5 subjects (adult men and women) per test, approximately 120 μL of blood (amount of 2 collection containers of the kit) was sampled by self-collection using an Micro Blood Collection Kit (Micro Blood Science Co., Ltd.), and was left to stand on ice until sample processing. The subjects were fasted on the morning of the sampling day, and samplings were performed around 9:00 am. The test was performed four times in total, with a total of 19 people performing evaluations, excluding one person due to insufficient sample blood volume.
The sampled blood was collected into 1.5 mL microtubes for each subject and mixed by gentle pipetting. Four types of filter papers (Whatman FTA DMPK-A Card/GE healthcare, QIAcard FTA DMPK-B Card/QIAGEN, QIAcard FTA DMPK-C Card/QIAGEN, Whatman 903 Protein saver card/Cytiva) were each spotted with 5 μL of blood (dropped/added) at multiple areas, sealed in a moisture absorption standard pouch (Moisture absorption-kun (registered trademark)/Maruto Sangyo Co., Ltd.), and stored in the refrigerator. Next, after chilled storing the blood-spotted filter paper for 2 days, 2 weeks (14 days or 15 days), or 1 month (30 days), the blood-spotted areas were cut out and collected in a 2 mL microtube. After adding 300 μL of a mixed aqueous solution of internal standard substances (NAD+-d4 and NMN-d4/Toronto Research Chemicals, Inc.) thereto and stirring using a vortex mixer, the mixture was mixed with a micromixer (TOMY MICRO TUBE MIXER MT-400, stirring speed 5) for 30 minutes at room temperature. The blood extract solution was dispensed by each 150 μL portion into a microtube, 300 μL of acetonitrile was added thereto, and the mixture was stirred using a vortex mixer, followed by centrifugation (24,250×g, 10 minutes, 4° C.). After centrifugation, 40 μL of the supernatant was dispensed into a vial and measured by LC-MS/MS.
In contrast, as a sample for initial values, 5 μL of blood was collected into a 2 mL microtube (no spotted filter paper), and 300 μL of a mixed aqueous solution of internal standard substances (NAD-d4 and NMN-d4/Toronto Research Chemicals, Inc.) was added thereto and stirred using a vortex mixer, and then the mixture was mixed using a micromixer (TOMY MICRO TUBE MIXER MT-400, stirring speed 5) for 30 minutes at room temperature. The blood extract solution was dispensed by each 150 μL portion into a microtube, 300 μL of acetonitrile was added thereto, and the mixture was stirred using a vortex mixer, followed by centrifugation (24,250×g, 10 minutes, 4° C.). After centrifugation, 40 μL of the supernatant was dispensed into a vial and measured by LC-MS/MS.

[2] = Room temperature storage stability of NAD+ and NMN in blood spotted on filter paper (DBS, LC-MS/MS); conditions: for Storage stability (mean): vs storage 0 days
Method: A filter paper, to which blood derived from a test subject is added (i.e., corresponding to a filter paper in Step 1 of the present invention), was searched for the optimal one for quantifying NAD+ and NMN when the filter paper with added blood derived from the test subject is stored at room temperature for a certain period of time.
A part of the blood spotted-filter paper prepared in Example 2 was sealed in a moisture absorption standard pouch (Moisture absorption-kun (registered trademark)/Maruto Sangyo Co., Ltd.) and then stored at room temperature. After storage at room temperature for 2 days, 1 week (7 days), or 2 weeks (15 days), the blood-spotted areas were cut out and collected in a 2 mL microtube. After performing the same treatment as in Example 2, measurement by LC-MS/MS was performed under the same conditions as in Example 2.

[3] = Storage stability of extract solution (frozen storage 71 days); conditions: frozen 71 days, vs storage 0 days
Excerpt: A filter paper with added blood derived from a test subject is brought into contact with a solvent (extraction buffer) to obtain the solvent after contact (hereinafter may be abbreviated as extract solution), which storage stability was investigated.
A part of the blood extract solution (100% water) from the filter paper obtained and stored in Example 2 (15 days of chilled storage) and a part of the solution for LC-MS/MS measurement (water containing 67% acetonitrile) were frozen-stored. After 71 days of frozen storage, the supernatant of the former obtained by adding twice the amount of acetonitrile thereto, mixing and centrifuging (24,250×g, 10 minutes, 4° C.), and the supernatant of the latter obtained by centrifuging (24,250×g, 10 minutes, 4° C.) the solution after storage were both measured by LC-MS/MS under the same conditions as in Example 2.

[4] = human blood on 903 card, chilled storage for 1 month
[5] = human blood on 903 card, chilled storage for 2 weeks
[6] = human blood on 903 card, chilled storage for 2 days
[7] = human blood on DMPK-A card, chilled storage for 1 month
[8] = human blood on DMPK-A card, chilled storage for 2 weeks
[9] = human blood on DMPK-A card, chilled storage for 2 days
[10] = human blood on DMPK-B card, chilled storage for 1 month
[11] = human blood on DMPK-B card, chilled storage for 2 weeks
[12] = human blood on DMPK-B card, chilled storage for 2 days
[13] = human blood on DMPK-C card, chilled storage for 1 month
[14] = human blood on DMPK-C card, chilled storage for 2 weeks
[15] = human blood on DMPK-C card, chilled storage for 2 days
[16] = human blood on 903 card, room temperature storage for 2 weeks
[17] = human blood on 903 card, room temperature storage for 2 days
[18] = human blood on DMPK-A card, room temperature storage for 2 weeks
[19] = human blood on DMPK-A card, room temperature storage for 2 days
[20] = human blood on DMPK-B card, room temperature storage for 1 week
[21] = human blood on DMPK-B card, room temperature storage for 2 weeks
[22] = human blood on DMPK-B card, room temperature storage for 2 days
[23] = human blood on DMPK-C card, room temperature storage for 2 weeks
[24] = human blood on DMPK-C card, room temperature storage for 2 days

NC(=O)c1ccc[n+]([C@@H]2O[C@H](COP(=O)([O-])OP(=O)(O)OC[C@H]3O[C@@H](n4cnc5c(N)ncnc54)[C@H](O)[C@@H]3O)[C@@H](O)[C@H]2O)c1 [NAD+, nicotinamide adenine dinucleotide]
Storage stability, Evaluation [1, 4]: Good: (Good (≥70%))
Storage stability (mean) [1, 4]: 82.6%
Storage stability, Evaluation [1, 5]: Good: (Good (≥70%))
Storage stability (mean) [1, 5]: 77.2%
Storage stability, Evaluation [1, 6]: Good: (Good (≥70%))
Storage stability (mean) [1, 6]: 74.1%
Storage stability, Evaluation [1, 7]: Good: (Good (≥70%))
Storage stability (mean) [1, 7]: 71.8%
Storage stability, Evaluation [1, 8]: Good: (Good (≥70%))
Storage stability (mean) [1, 8]: 79.1%
Storage stability, Evaluation [1, 9]: Good: (Good (≥70%))
Storage stability (mean) [1, 9]: 81.5%
Storage stability, Evaluation [1, 10]: Good: (Good (≥70%))
Storage stability (mean) [1, 10]: 79.8%
Storage stability, Evaluation [1, 11]: Excellent: (Excellent (≥85%))
Storage stability (mean) [1, 11]: 87.8%
Storage stability, Evaluation [1, 12]: Good: (Good (≥70%))
Storage stability (mean) [1, 12]: 80.7%
Storage stability, Evaluation [1, 13]: Average: (Average (≥50%))
Storage stability (mean) [1, 13]: 54.3%
Storage stability, Evaluation [1, 14]: Average: (Average (≥50%))
Storage stability (mean) [1, 14]: 66.6%
Storage stability, Evaluation [1, 15]: Good: (Good (≥70%))
Storage stability (mean) [1, 15]: 70.1%
Storage stability, Evaluation [2, 16]: Average (Average (≥50%))
Storage stability (mean) [2, 16]: 50.3%
Storage stability, Evaluation [2, 17]: Average (Average (≥50%))
Storage stability (mean) [2, 17]: 66.2%
Storage stability, Evaluation [2, 18]: Average: (Average (≥50%))
Storage stability (mean) [2, 18]: 51.6%
Storage stability, Evaluation [2, 19]: Good: (Good (≥70%))
Storage stability (mean) [2, 19]: 71.6%
Storage stability, Evaluation [2, 20]: Excellent: (Excellent (≥85%))
Storage stability (mean) [2, 20]: 87.2%
Storage stability, Evaluation [2, 21]: Average: (Average (≥50%))
Storage stability (mean) [2, 21]: 67.6%
Storage stability, Evaluation [2, 22]: Good: (Good (≥70%))
Storage stability (mean) [2, 22]: 82.0%
Storage stability, Evaluation [2, 23]: Average (Average (≥50%))
Storage stability (mean) [2, 23]: 50.2%
Storage stability, Evaluation [2, 24]: Average (Average (≥50%))
Storage stability (mean) [2, 24]: 55.9%
Storage stability (mean) ([3]; 903 card chilled 15 days, extract solution 100% water): 266.3%
Storage stability (mean) ([3]; 903 card chilled 15 days, extract solution with twice the amount of acetonitrile added): 92.1%
Storage stability (mean) ([3]; DMPK-A card chilled 15 days, extract solution 100% water): 145.8%
Storage stability (mean) ([3]; DMPK-A card chilled 15 days, extract solution with twice the amount of acetonitrile added): 89.6%
Storage stability (mean) ([3]; DMPK-B card chilled 15 days, extract solution 100% water): 93.1%
Storage stability (mean) ([3]; DMPK-B card chilled 15 days, extract solution with twice the amount of acetonitrile added): 100.0%
Storage stability (mean) ([3]; DMPK-C card chilled 15 days, extract solution 100% water): 200.6%
Storage stability (mean) ([3]; DMPK-C card chilled 15 days, extract solution with twice the amount of acetonitrile added): 73.6%
